Laboratory results: article doi:10.1101/2021.04.08.439011v1 (biorxiv, 2021)

Key:
INSR = INSR (Homo sapiens, UniProt P06213); settings: 0.1 µM; binder
PYK2 = PYK2 (Homo sapiens, UniProt Q14289); settings: 0.1 µM; binder
LRRK2 = LRRK2 (Homo sapiens, UniProt Q5S007); settings: 0.1 µM; binder
PIP5K1C = PIP5K1C (Homo sapiens, UniProt O60331); settings: 0.1 µM; binder
RIOK3 = RIOK3 (Homo sapiens, UniProt O14730); settings: 0.1 µM; binder
FGFR3 = FGFR3 (Homo sapiens, UniProt P22607); settings: 0.1 µM; binder
CDC2L2 = CDC2L2 (Homo sapiens, UniProt Q9UQ88); settings: 0.1 µM; binder
MLK3 = MLK3 (Homo sapiens, UniProt Q16584); settings: 0.1 µM; binder
FLT3(R834Q) = FLT3(R834Q) (Homo sapiens, UniProt P36888, R834Q); settings: 0.1 µM; binder
DCAMKL2 = DCAMKL2 (Homo sapiens, UniProt Q8N568); settings: 0.1 µM; binder
CSNK1A1 = CSNK1A1 (Homo sapiens, UniProt P48729); settings: 0.1 µM; binder
ABL1(E255K) = ABL1(E255K) (Homo sapiens, UniProt P00519, E255K); settings: phosphorylated; 0.1 µM; binder
ABL1(E255K), sequence (P00519 whole entry E255K): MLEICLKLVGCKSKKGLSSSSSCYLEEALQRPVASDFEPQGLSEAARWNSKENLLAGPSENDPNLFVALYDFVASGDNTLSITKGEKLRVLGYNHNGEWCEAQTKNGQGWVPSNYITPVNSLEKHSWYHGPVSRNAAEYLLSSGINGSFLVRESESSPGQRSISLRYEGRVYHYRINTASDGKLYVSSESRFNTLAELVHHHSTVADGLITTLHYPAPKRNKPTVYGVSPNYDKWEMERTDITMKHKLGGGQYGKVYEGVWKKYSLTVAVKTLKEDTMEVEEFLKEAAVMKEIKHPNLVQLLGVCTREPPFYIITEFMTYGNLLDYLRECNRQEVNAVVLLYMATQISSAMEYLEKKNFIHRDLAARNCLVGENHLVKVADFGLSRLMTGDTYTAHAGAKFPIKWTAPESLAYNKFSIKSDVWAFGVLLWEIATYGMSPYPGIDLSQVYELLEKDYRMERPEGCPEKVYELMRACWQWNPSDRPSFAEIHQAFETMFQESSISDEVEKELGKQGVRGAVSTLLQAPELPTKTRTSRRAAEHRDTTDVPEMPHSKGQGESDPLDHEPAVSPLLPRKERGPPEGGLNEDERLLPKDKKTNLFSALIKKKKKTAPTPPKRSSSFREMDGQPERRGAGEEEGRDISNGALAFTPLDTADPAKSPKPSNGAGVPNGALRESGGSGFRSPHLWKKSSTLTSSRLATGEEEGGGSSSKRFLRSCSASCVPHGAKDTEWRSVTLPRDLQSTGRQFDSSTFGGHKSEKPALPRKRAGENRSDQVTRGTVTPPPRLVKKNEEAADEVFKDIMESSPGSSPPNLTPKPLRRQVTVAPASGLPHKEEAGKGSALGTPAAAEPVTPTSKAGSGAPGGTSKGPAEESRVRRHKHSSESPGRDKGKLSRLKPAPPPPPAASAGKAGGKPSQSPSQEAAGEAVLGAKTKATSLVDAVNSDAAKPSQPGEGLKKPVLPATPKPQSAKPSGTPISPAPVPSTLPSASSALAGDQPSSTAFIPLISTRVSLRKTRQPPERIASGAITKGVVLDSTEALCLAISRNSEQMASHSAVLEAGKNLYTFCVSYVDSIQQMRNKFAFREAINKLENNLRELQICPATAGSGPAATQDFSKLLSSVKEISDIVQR

FGFR3(G697C) = FGFR3(G697C) (Homo sapiens, UniProt P22607, G697C); settings: 0.1 µM; binder
FGR = FGR (Homo sapiens, UniProt P09769); settings: 0.1 µM; binder
VEGFR2 = VEGFR2 (Homo sapiens, UniProt P35968); settings: 0.1 µM; binder
PIK3CA(E542K) = PIK3CA(E542K) (Homo sapiens, UniProt P42336, E542K); settings: 0.1 µM; binder
EGFR(G719S) = EGFR(G719S) (Homo sapiens, UniProt P00533, G719S); settings: 0.1 µM; binder
ERN1 = ERN1 (Homo sapiens, UniProt O75460); settings: 0.1 µM; binder
MAP4K2 = MAP4K2 (Homo sapiens, UniProt Q12851); settings: 0.1 µM; binder
EGFR = EGFR (Homo sapiens, UniProt P00533); settings: 0.1 µM; binder
PIP5K1A = PIP5K1A (Homo sapiens, UniProt Q99755); settings: 0.1 µM; binder
LATS2 = LATS2 (Homo sapiens, UniProt Q9NRM7); settings: 0.1 µM; binder
LATS2, sequence (Q9NRM7 whole entry): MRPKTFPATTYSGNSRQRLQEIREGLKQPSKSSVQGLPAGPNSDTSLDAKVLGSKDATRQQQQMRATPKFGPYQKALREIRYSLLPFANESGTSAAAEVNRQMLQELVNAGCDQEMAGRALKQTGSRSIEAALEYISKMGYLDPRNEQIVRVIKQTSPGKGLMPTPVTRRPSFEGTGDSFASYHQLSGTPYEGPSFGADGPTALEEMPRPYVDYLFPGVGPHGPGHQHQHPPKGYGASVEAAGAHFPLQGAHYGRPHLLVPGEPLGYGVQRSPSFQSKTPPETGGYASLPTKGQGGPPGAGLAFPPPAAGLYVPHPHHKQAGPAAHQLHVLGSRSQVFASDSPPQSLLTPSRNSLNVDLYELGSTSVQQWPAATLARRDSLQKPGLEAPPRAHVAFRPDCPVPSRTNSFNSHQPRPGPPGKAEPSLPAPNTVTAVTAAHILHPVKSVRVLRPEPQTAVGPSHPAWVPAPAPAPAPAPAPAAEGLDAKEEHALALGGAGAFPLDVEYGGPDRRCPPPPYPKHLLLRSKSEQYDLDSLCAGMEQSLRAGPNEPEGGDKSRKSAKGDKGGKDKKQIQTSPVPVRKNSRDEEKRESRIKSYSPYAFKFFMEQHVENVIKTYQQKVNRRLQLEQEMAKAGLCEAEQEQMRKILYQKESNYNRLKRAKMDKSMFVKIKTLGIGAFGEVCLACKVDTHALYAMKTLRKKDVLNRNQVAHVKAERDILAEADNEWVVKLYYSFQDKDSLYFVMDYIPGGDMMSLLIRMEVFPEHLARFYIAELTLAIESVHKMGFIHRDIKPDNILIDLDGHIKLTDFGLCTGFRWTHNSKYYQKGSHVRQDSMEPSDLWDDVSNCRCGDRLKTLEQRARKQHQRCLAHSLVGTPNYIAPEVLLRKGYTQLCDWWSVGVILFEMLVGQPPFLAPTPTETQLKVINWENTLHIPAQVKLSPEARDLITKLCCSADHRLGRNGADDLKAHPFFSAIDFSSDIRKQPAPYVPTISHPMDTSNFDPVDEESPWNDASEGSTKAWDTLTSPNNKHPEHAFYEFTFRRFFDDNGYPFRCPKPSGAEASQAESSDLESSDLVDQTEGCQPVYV

LOK = LOK (Homo sapiens, UniProt O94804); settings: 0.1 µM; binder
NIM1 = NIM1 (Homo sapiens, UniProt Q8IY84); settings: 0.1 µM; binder
ERBB2 = ERBB2 (Homo sapiens, UniProt P04626); settings: 0.1 µM; binder
ERBB2, sequence (P04626 whole entry): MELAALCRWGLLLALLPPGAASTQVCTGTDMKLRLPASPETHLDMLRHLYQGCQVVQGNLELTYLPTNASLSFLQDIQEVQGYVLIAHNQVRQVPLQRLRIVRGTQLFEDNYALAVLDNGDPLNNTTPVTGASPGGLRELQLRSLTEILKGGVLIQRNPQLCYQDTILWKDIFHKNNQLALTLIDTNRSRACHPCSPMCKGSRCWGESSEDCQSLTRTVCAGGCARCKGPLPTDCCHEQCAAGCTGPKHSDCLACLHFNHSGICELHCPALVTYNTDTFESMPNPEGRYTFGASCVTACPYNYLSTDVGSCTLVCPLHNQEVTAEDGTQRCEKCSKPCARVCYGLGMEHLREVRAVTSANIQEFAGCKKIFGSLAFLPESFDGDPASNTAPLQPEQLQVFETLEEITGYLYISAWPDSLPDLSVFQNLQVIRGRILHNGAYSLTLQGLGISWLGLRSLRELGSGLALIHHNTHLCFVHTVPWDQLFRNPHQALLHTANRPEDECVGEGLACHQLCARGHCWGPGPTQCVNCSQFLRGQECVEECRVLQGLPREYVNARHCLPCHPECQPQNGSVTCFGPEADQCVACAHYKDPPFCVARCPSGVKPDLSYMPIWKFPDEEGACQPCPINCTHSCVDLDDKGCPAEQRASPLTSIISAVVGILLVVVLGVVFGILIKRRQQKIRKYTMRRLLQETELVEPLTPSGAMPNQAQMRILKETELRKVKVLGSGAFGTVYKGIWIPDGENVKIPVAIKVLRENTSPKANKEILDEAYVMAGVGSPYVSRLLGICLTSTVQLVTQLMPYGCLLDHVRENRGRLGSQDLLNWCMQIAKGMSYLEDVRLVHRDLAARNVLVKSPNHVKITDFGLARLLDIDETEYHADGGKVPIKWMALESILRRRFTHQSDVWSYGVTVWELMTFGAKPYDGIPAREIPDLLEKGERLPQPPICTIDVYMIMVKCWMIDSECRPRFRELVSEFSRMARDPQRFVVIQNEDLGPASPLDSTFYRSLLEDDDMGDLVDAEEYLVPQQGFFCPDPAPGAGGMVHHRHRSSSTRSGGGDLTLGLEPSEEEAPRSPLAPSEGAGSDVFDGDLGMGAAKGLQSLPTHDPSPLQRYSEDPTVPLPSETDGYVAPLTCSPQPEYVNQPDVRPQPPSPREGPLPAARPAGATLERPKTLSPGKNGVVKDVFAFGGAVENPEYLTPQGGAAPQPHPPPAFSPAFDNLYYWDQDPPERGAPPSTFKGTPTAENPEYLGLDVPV

RAF1 = RAF1 (Homo sapiens, UniProt P04049); settings: 0.1 µM; binder
STK39 = STK39 (Homo sapiens, UniProt Q9UEW8); settings: 0.1 µM; binder
PIP4K2C = PIP4K2C (Homo sapiens, UniProt Q8TBX8); settings: 0.1 µM; binder
PIP4K2C, sequence (Q8TBX8 whole entry): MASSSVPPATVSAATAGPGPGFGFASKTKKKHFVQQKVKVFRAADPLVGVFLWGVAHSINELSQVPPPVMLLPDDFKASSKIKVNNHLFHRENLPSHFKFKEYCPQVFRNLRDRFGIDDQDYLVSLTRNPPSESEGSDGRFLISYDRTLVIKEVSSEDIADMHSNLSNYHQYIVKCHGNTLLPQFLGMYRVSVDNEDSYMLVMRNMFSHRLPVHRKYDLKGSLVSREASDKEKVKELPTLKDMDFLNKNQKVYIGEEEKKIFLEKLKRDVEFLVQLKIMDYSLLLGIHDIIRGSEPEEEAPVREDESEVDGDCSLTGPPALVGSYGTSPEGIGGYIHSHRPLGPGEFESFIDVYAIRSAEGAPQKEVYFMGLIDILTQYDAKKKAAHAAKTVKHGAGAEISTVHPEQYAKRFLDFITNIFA

FLT3(D835Y) = FLT3(D835Y) (Homo sapiens, UniProt P36888, D835Y); settings: 0.1 µM; binder
EPHA8 = EPHA8 (Homo sapiens, UniProt P29322); settings: 0.1 µM; binder
IKK-epsilon = IKK-epsilon (Homo sapiens, UniProt Q14164); settings: 0.1 µM; binder

RIOK3, sequence (O14730 whole entry): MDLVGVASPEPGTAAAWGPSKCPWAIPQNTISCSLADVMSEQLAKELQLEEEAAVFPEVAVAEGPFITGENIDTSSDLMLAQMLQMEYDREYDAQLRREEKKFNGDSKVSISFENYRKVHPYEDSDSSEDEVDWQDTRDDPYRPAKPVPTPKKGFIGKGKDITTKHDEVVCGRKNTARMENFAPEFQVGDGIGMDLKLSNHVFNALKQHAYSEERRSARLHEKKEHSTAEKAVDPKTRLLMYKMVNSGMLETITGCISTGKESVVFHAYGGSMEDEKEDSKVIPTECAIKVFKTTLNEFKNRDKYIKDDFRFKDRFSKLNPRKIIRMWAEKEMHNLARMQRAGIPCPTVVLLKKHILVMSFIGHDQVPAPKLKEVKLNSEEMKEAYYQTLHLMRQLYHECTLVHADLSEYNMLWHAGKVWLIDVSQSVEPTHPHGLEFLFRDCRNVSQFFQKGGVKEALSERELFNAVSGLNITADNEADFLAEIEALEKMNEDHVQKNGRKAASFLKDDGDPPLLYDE
PIP5K1C, sequence (O60331 whole entry): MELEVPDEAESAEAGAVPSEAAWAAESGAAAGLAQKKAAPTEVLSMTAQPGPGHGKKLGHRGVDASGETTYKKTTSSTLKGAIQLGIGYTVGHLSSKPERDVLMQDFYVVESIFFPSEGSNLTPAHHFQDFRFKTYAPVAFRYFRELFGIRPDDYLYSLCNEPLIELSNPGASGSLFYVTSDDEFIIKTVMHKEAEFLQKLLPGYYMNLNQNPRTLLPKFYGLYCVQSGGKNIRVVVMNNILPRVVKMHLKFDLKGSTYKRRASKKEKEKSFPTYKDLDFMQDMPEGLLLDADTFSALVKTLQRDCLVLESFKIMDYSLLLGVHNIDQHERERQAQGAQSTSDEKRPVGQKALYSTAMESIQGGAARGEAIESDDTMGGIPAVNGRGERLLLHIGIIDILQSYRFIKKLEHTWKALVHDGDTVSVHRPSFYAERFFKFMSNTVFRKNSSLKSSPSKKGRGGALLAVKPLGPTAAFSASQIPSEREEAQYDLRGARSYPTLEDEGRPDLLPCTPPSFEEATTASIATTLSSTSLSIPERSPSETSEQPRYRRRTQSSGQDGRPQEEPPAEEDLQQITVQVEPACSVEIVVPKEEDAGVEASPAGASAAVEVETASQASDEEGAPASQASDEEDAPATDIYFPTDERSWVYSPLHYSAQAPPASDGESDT

SMILES: CNc1ncc2cc(-c3ccc(-c4cccc(C)n4)cc3Cl)c(=O)n(C[C@H]3OC[C@H](N)CO3)c2n1 [compound 6, G-5555]
- Percent Control (INSR): 95%
- Percent Control (PYK2): 100%
- Percent Control (LRRK2): 83%
- Percent Control (PIP5K1C): 100%
- Percent Control (RIOK3): 85%
- Percent Control (FGFR3): 100%
- Percent Control (CDC2L2): 100%
- Percent Control (MLK3): 100%
- Percent Control (FLT3(R834Q)): 96%
- Percent Control (DCAMKL2): 100%
- Percent Control (CSNK1A1): 100%
- Percent Control (ABL1(E255K)): 100%
- Percent Control (FGFR3(G697C)): 99%
- Percent Control (FGR): 100%
- Percent Control (VEGFR2): 98%
- Percent Control (PIK3CA(E542K)): 89%
- Percent Control (EGFR(G719S)): 100%
- Percent Control (ERN1): 92%
- Percent Control (MAP4K2): 63%
- Percent Control (EGFR): 100%
- Percent Control (PIP5K1A): 48%
- Percent Control (LATS2): 58%
- Percent Control (LOK): 37%
- Percent Control (NIM1): 89%
- Percent Control (ERBB2): 100%
- Percent Control (RAF1): 100%
- Percent Control (STK39): 100%
- Percent Control (PIP4K2C): 79%
- Percent Control (FLT3(D835Y)): 94%
- Percent Control (EPHA8): 100%
- Percent Control (IKK-epsilon): 100%
